How the values were obtained:
[1] = tested on: Gb. stearothermophilus spores; test: Fluorescence with spores after dye medium was exposed to sterilization temperature, autoclaved vs not autoclaved (Example 2); format: cell-based; conditions: ex 485/em 530 nm, 50° C.
Experimental: Dilutions of a Gb. stearothermophilus spore suspension described above were subjected to heat shock treatment at 80° C. for 10 min. The dilutions were prepared using Sterile Water For Irrigation (Baxter, Deerfield, Ill.) and tested at a final population of 1×10^6 and 0 spores. The spore dilutions (100 microlitres) were combined with 200 microlitres of medium, consisting of Acridine Orange and nutrients as described in Example 1, that had been subjected to a 15 min 121° C. (250° F.) vacuum assisted cycle in a AMSCO Scientific SG-120 Eagle/Century Series steam sterilizer (Steris, Mentor Ohio), and each of the resulting mixtures was added to a well of a plate. Un-autoclaved medium was used as a control. […] The experiment was performed with both heat shocked and non-heat shocked spores. A summary of the normalized data is listed below in Tables 2a-2c.

spores = test: Fluorescence over a range of dye concentrations with decreasing concentrations of spores (Example 5); format: cell-based, Gb. stearothermophilus; conditions: for Fluorescence intensity (normalized): dye 0.0066 mM with nutrients, ex 485/em 530 nm, 50° C.
Experimental: Dilutions were prepared using Sterile Water For Irrigation (Baxter, Deerfield, Ill.) and tested at a final population ranging between of 1×10^6 and 0 spores. The spore dilutions (100 microlitres) were combined with 200 microlitres of medium, consisting of Acridine Orange and nutrients as described in Example 1, with Acridine Orange concentrations at 1:5000 (0.0066 mM), 1:1000 (0.033 mM) and 1:500 (0.066 mM), each of the resulting mixtures was added to a well of a plate. The plate was subsequently placed in a preheated plate reader (BioTek Synergy 4 plate reader, Winooski, Vt.) at 50° C. and incubated for 60 min, during which fluorescence intensity readings were taken using excitation at 485 nm and emission at 530 nm. A summary of the normalized data is listed below in Table 5a-5c.

SMILES: CN(C)c1ccc2cc3ccc(N(C)C)cc3nc2c1 [Acridine Orange]
- Fluorescence intensity (normalized) ([1]; Autoclaved (15 min 121° C.) dye + nutrient medium, heat shocked E6 germinating spores, 0 min): 0
- Fluorescence intensity (normalized) ([1]; Autoclaved (15 min 121° C.) dye + nutrient medium, heat shocked E6 germinating spores, 30 min): 6211.5
- Fluorescence intensity (normalized) ([1]; Autoclaved (15 min 121° C.) dye + nutrient medium, heat shocked E6 germinating spores, 60 min): 8652.5
- Fluorescence intensity (normalized) ([1]; Autoclaved (15 min 121° C.) dye + nutrient medium, heat shocked E6 germinating spores, 90 min): 9955.5
- Fluorescence intensity (normalized) ([1]; Autoclaved (15 min 121° C.) dye + nutrient medium, heat shocked E6 germinating spores, 120 min): 10376.5
- Fluorescence intensity (normalized) ([1]; Autoclaved (15 min 121° C.) dye + nutrient medium, heat shocked E6 germinating spores, 150 min): 10694.25
- Fluorescence intensity (normalized) ([1]; Autoclaved (15 min 121° C.) dye + nutrient medium, heat shocked E6 germinating spores, 180 min): 10803
- Fluorescence intensity (normalized) ([1]; Autoclaved (15 min 121° C.) dye + nutrient medium, heat shocked, 0 spores, 0 min): 0
- Fluorescence intensity (normalized) ([1]; Autoclaved (15 min 121° C.) dye + nutrient medium, heat shocked, 0 spores, 30 min): 522.25
- Fluorescence intensity (normalized) ([1]; Autoclaved (15 min 121° C.) dye + nutrient medium, heat shocked, 0 spores, 60 min): 588.75
- Fluorescence intensity (normalized) ([1]; Autoclaved (15 min 121° C.) dye + nutrient medium, heat shocked, 0 spores, 90 min): 779.75
- Fluorescence intensity (normalized) ([1]; Autoclaved (15 min 121° C.) dye + nutrient medium, heat shocked, 0 spores, 120 min): 870
- Fluorescence intensity (normalized) ([1]; Autoclaved (15 min 121° C.) dye + nutrient medium, heat shocked, 0 spores, 150 min): 886.5
- Fluorescence intensity (normalized) ([1]; Autoclaved (15 min 121° C.) dye + nutrient medium, heat shocked, 0 spores, 180 min): 960.5
- Fluorescence intensity (normalized) ([1]; Autoclaved (15 min 121° C.) dye + nutrient medium, non-heat shocked E6 germinating spores, 0 min): 0
- Fluorescence intensity (normalized) ([1]; Autoclaved (15 min 121° C.) dye + nutrient medium, non-heat shocked E6 germinating spores, 14 min): 609
- Fluorescence intensity (normalized) ([1]; Autoclaved (15 min 121° C.) dye + nutrient medium, non-heat shocked E6 germinating spores, 30 min): 2599
- Fluorescence intensity (normalized) ([1]; Autoclaved (15 min 121° C.) dye + nutrient medium, non-heat shocked E6 germinating spores, 44 min): 4753
- Fluorescence intensity (normalized) ([1]; Autoclaved (15 min 121° C.) dye + nutrient medium, non-heat shocked E6 germinating spores, 58 min): 6508
- Fluorescence intensity (normalized) ([1]; Autoclaved (15 min 121° C.) dye + nutrient medium, non-heat shocked, 0 spores, 0 min): 0
- Fluorescence intensity (normalized) ([1]; Autoclaved (15 min 121° C.) dye + nutrient medium, non-heat shocked, 0 spores, 14 min): −212
- Fluorescence intensity (normalized) ([1]; Autoclaved (15 min 121° C.) dye + nutrient medium, non-heat shocked, 0 spores, 30 min): −263
- Fluorescence intensity (normalized) ([1]; Autoclaved (15 min 121° C.) dye + nutrient medium, non-heat shocked, 0 spores, 44 min): −278
- Fluorescence intensity (normalized) ([1]; Autoclaved (15 min 121° C.) dye + nutrient medium, non-heat shocked, 0 spores, 58 min): −287
- Fluorescence intensity (normalized) ([1]; Not autoclaved dye + nutrient medium, heat shocked E6 germinating spores, 0 min): 0
- Fluorescence intensity (normalized) ([1]; Not autoclaved dye + nutrient medium, heat shocked E6 germinating spores, 30 min): 11623.75
- Fluorescence intensity (normalized) ([1]; Not autoclaved dye + nutrient medium, heat shocked E6 germinating spores, 60 min): 17121.25
- Fluorescence intensity (normalized) ([1]; Not autoclaved dye + nutrient medium, heat shocked E6 germinating spores, 90 min): 18928.25
- Fluorescence intensity (normalized) ([1]; Not autoclaved dye + nutrient medium, heat shocked E6 germinating spores, 120 min): 19653.75
- Fluorescence intensity (normalized) ([1]; Not autoclaved dye + nutrient medium, heat shocked E6 germinating spores, 150 min): 19884.5
- Fluorescence intensity (normalized) ([1]; Not autoclaved dye + nutrient medium, heat shocked E6 germinating spores, 180 min): 20008.25
- Fluorescence intensity (normalized) ([1]; Not autoclaved dye + nutrient medium, heat shocked, 0 spores, 0 min): 0
- Fluorescence intensity (normalized) ([1]; Not autoclaved dye + nutrient medium, heat shocked, 0 spores, 30 min): 813
- Fluorescence intensity (normalized) ([1]; Not autoclaved dye + nutrient medium, heat shocked, 0 spores, 60 min): 875.75
- Fluorescence intensity (normalized) ([1]; Not autoclaved dye + nutrient medium, heat shocked, 0 spores, 90 min): 996.25
- Fluorescence intensity (normalized) ([1]; Not autoclaved dye + nutrient medium, heat shocked, 0 spores, 120 min): 1099
- Fluorescence intensity (normalized) ([1]; Not autoclaved dye + nutrient medium, heat shocked, 0 spores, 150 min): 1114.5
- Fluorescence intensity (normalized) ([1]; Not autoclaved dye + nutrient medium, heat shocked, 0 spores, 180 min): 990.25
- Fluorescence intensity (normalized) ([1]; Not autoclaved dye + nutrient medium, non-heat shocked E6 germinating spores, 0 min): 00
- Fluorescence intensity (normalized) ([1]; Not autoclaved dye + nutrient medium, non-heat shocked E6 germinating spores, 14 min): 597
- Fluorescence intensity (normalized) ([1]; Not autoclaved dye + nutrient medium, non-heat shocked E6 germinating spores, 30 min): 2878
- Fluorescence intensity (normalized) ([1]; Not autoclaved dye + nutrient medium, non-heat shocked E6 germinating spores, 44 min): 5314
- Fluorescence intensity (normalized) ([1]; Not autoclaved dye + nutrient medium, non-heat shocked E6 germinating spores, 58 min): 7289
- Fluorescence intensity (normalized) ([1]; Not autoclaved dye + nutrient medium, non-heat shocked, 0 spores, 0 min): 0
- Fluorescence intensity (normalized) ([1]; Not autoclaved dye + nutrient medium, non-heat shocked, 0 spores, 14 min): −334
- Fluorescence intensity (normalized) ([1]; Not autoclaved dye + nutrient medium, non-heat shocked, 0 spores, 30 min): −456
- Fluorescence intensity (normalized) ([1]; Not autoclaved dye + nutrient medium, non-heat shocked, 0 spores, 44 min): −484
- Fluorescence intensity (normalized) ([1]; Not autoclaved dye + nutrient medium, non-heat shocked, 0 spores, 58 min): −476
- Dependence of signal on dye concentration (spores; 0.0066, 0.033, 0.066 mM): the higher the signal
- Detection of spores (lowest spore population shown) (spores; all Acridine Orange concentrations (0.0066, 0.033, 0.066 mM)): Detection of E3 spores was shown
- Fluorescence intensity (normalized) (spores; 0 spores, 0:00:00): 0
- Fluorescence intensity (normalized) (spores; 0 spores, 0:15:00): 711
- Fluorescence intensity (normalized) (spores; 0 spores, 0:30:00): 886.5
- Fluorescence intensity (normalized) (spores; 0 spores, 0:45:00): 1027
- Fluorescence intensity (normalized) (spores; 0 spores, 1:00:00): 1147.5
- Fluorescence intensity (normalized) (spores; E3 spores, 0:00:00): 0
- Fluorescence intensity (normalized) (spores; E3 spores, 0:15:00): 2033
- Fluorescence intensity (normalized) (spores; E3 spores, 0:30:00): 2271.5
- Fluorescence intensity (normalized) (spores; E3 spores, 0:45:00): 2396
- Fluorescence intensity (normalized) (spores; E3 spores, 1:00:00): 2484.5
- Fluorescence intensity (normalized) (spores; E4 spores, 0:00:00): 0
- Fluorescence intensity (normalized) (spores; E4 spores, 0:15:00): 3754.5
